In PubChem BioAssay (NCI):
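Grown in 96-well plates, cells were treated for 48 hours with each compound at five concentrations. Insufficient inhibition: endpoint recorded as highest concentration tested. TGI is the concentration that stops growth completely.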

Experiments:
Assay in all cases: NCI-60 cell line screen, 48 h
[1] = tested on: A549 NSCLC
[2] = tested on: MDA-MB-231 breast
[3] = tested on: SK-MEL-2 melanoma
[4] = tested on: 786-0 renal
[5] = tested on: NCI-H460 lung
[6] = tested on: MDA-MB-435
[7] = tested on: RPMI-8226 leukemia
[8] = tested on: UACC-62 melanoma
[9] = tested on: SK-MEL-28 melanoma
[10] = tested on: HOP-92 NSCLC
[11] = tested on: TK-10 renal
[12] = tested on: MDA-N
[13] = tested on: SF-268 CNS
[14] = tested on: SF-539 CNS
[15] = tested on: SNB-75 CNS
[16] = tested on: CCRF-CEM leukemia
[17] = tested on: NCI-H522 lung
[18] = tested on: EKVX NSCLC

Row | SMILES | TGI [1] | TGI [2] | TGI [3] | TGI [4] | TGI [5] | TGI [6] | TGI [7] | TGI [8] | TGI [9] | TGI [10] | TGI [11] | TGI [12] | TGI [13] | TGI [14] | TGI [15] | TGI [16] | TGI [17] | TGI [18]
1 | Nc1ncnc2c1ncn2-c1ccc([N+](=O)[O-])cn1 | > 100 µM | > 100 µM | > 100 µM | > 100 µM | > 100 µM | > 100 µM | > 100 µM | > 100 µM | > 100 µM | > 100 µM | > 100 µM | > 100 µM | > 100 µM | > 100 µM | > 100 µM | > 100 µM | – | –
2 | OC(Cc1ccc2ccccc2n1)(C(F)(F)Cl)C(F)(F)Cl | > 10 µM | > 10 µM | – | > 10 µM | > 10 µM | > 10 µM | – | > 10 µM | > 10 µM | > 10 µM | > 10 µM | > 10 µM | > 10 µM | > 10 µM | > 10 µM | > 10 µM | > 10 µM | > 10 µM
3 | CC(C)CC(NP(=O)(O)OC1OC(C)C(O)C(O)C1O)C(=O)NC(Cc1c[nH]c2ccccc12)C(=O)O (stereo unspecified) | > 100 µM | > 100 µM | – | > 100 µM | > 100 µM | > 100 µM | > 100 µM | > 100 µM | > 100 µM | > 100 µM | – | > 100 µM | > 100 µM | > 100 µM | > 100 µM | > 100 µM | > 100 µM | > 100 µM
4 | NS(=O)(=O)c1nnc(NC(=O)c2cccc([N+](=O)[O-])c2)s1 | > 100 µM | > 100 µM | > 100 µM | > 100 µM | > 100 µM | > 100 µM | > 100 µM | > 100 µM | > 100 µM | > 100 µM | > 100 µM | > 100 µM | > 100 µM | > 100 µM | – | – | > 100 µM | > 100 µM
5 | CC(C)CCC[C@@H](C)C1CCC2[C@@H]3CCC4C[C@@H](NS(C)(=O)=O)CC[C@]4(C)C3CC[C@@]21C (stereo partly specified) | > 100 µM | > 100 µM | > 100 µM | > 100 µM | > 100 µM | > 100 µM | > 100 µM | > 100 µM | > 100 µM | – | > 100 µM | > 100 µM | > 100 µM | > 100 µM | > 100 µM | > 100 µM | > 100 µM | > 100 µM
6 | O=c1cc(NNc2ccccc2F)[nH]c(=O)[nH]1 | > 100 µM | 29.9 µM | 30.8 µM | 28.7 µM | 2.3 µM | – | 46.2 µM | 30.9 µM | 35.1 µM | 29.2 µM | 27.5 µM | 32.5 µM | 35.2 µM | 30.7 µM | 72.5 µM | 47.6 µM | 31.5 µM | –
7 | CCCCC(/C=C\COC1CCCCO1)=C/C(=O)OCC (stereo unspecified) | > 100 µM | > 100 µM | > 100 µM | > 100 µM | > 100 µM | > 100 µM | > 100 µM | > 100 µM | > 100 µM | – | > 100 µM | > 100 µM | > 100 µM | > 100 µM | > 100 µM | > 100 µM | > 100 µM | > 100 µM
8 | c1ccc(-c2c3c(nc4c2CC[C@H]4NC2=NCCN2)[C@@H](NC2=NCCN2)CC3)cc1 | > 100 µM | > 100 µM | > 100 µM | > 100 µM | > 100 µM | > 100 µM | – | > 100 µM | > 100 µM | > 100 µM | > 100 µM | > 100 µM | > 100 µM | > 100 µM | > 100 µM | > 100 µM | > 100 µM | > 100 µM
9 | [N-]=[N+]=Nc1ccc2c(c1)Sc1ccccc1N2CCCCN1CCN(Cc2ccc(C(=O)c3ccc(CSCC(N)C(=O)O)cc3)cc2)CC1 (stereo unspecified) | – | 50.9 µM | 48.1 µM | 24.4 µM | > 100 µM | 3.16 µM | > 100 µM | 24.4 µM | 3.8 µM | 38.2 µM | > 100 µM | 35.4 µM | > 100 µM | – | – | > 100 µM | 33.7 µM | > 100 µM
10 | CCCCOCOc1ccccc1P1(=O)COc2ccccc2OC1 | > 100 µM | > 100 µM | > 100 µM | > 100 µM | > 100 µM | > 100 µM | > 100 µM | > 100 µM | > 100 µM | > 100 µM | 94.1 µM | > 100 µM | > 100 µM | > 100 µM | > 100 µM | > 100 µM | – | > 100 µM
11 | C[C@@H]1CCC2C(C)(C)C(/C=C\C=O)C3(C)OC213 (stereo partly specified) | > 100 µM | > 100 µM | > 100 µM | > 100 µM | > 100 µM | > 100 µM | 84.5 µM | > 100 µM | > 100 µM | 93.9 µM | > 100 µM | > 100 µM | > 100 µM | – | > 100 µM | – | > 100 µM | > 100 µM
12 | CCCC(C)NC(=O)c1ccc(N(C)Cc2cnc3nc(N)nc(N)c3n2)cc1 (stereo unspecified) | – | > 100 µM | 49 µM | > 100 µM | > 100 µM | 48.2 µM | > 100 µM | 25.7 µM | 42.3 µM | – | 86.1 µM | > 100 µM | > 100 µM | 32.3 µM | 56.6 µM | > 100 µM | – | > 100 µM
13 | CCOC(=O)c1nc2ccccc2nc1Oc1ccc(C#N)cc1 | > 100 µM | – | > 100 µM | > 100 µM | > 100 µM | > 100 µM | > 100 µM | > 100 µM | > 100 µM | > 100 µM | > 100 µM | > 100 µM | > 100 µM | > 100 µM | – | > 100 µM | – | > 100 µM
14 | Oc1cnc2c(O)cccc2c1 | > 100 µM | > 100 µM | > 100 µM | > 100 µM | > 100 µM | > 100 µM | > 100 µM | 62.3 µM | > 100 µM | > 100 µM | > 100 µM | > 100 µM | > 100 µM | 96.6 µM | 79.9 µM | – | > 100 µM | 57.2 µM
